Data from patent publication US9938281B2 (Merck Sharp & Dohme Corp., priority 2012, dated 2018).
pIC50: −log10 of the molar value.

Experiments:
PI3K-delta = target: T1, PI3K-delta (Homo sapiens, UniProt O00329); assay: HTRF PI3K biochemical assay, delta isoform; settings: form screened (neutral or TFA salt) given, read-out: PI3Kdelta IC50
T1 construct: purchased Upstate; Millipore 14-604

PI3K-alpha = target: T2, PI3K-alpha (Homo sapiens, UniProt P42336); assay: HTRF PI3K biochemical assay, alpha isoform; settings: ratio PI3K-alpha IC50 value / PI3K-delta IC50 value
T2 construct: purchased Upstate; Millipore 14-602
T2 sequence (P42336 whole entry, canonical isoform): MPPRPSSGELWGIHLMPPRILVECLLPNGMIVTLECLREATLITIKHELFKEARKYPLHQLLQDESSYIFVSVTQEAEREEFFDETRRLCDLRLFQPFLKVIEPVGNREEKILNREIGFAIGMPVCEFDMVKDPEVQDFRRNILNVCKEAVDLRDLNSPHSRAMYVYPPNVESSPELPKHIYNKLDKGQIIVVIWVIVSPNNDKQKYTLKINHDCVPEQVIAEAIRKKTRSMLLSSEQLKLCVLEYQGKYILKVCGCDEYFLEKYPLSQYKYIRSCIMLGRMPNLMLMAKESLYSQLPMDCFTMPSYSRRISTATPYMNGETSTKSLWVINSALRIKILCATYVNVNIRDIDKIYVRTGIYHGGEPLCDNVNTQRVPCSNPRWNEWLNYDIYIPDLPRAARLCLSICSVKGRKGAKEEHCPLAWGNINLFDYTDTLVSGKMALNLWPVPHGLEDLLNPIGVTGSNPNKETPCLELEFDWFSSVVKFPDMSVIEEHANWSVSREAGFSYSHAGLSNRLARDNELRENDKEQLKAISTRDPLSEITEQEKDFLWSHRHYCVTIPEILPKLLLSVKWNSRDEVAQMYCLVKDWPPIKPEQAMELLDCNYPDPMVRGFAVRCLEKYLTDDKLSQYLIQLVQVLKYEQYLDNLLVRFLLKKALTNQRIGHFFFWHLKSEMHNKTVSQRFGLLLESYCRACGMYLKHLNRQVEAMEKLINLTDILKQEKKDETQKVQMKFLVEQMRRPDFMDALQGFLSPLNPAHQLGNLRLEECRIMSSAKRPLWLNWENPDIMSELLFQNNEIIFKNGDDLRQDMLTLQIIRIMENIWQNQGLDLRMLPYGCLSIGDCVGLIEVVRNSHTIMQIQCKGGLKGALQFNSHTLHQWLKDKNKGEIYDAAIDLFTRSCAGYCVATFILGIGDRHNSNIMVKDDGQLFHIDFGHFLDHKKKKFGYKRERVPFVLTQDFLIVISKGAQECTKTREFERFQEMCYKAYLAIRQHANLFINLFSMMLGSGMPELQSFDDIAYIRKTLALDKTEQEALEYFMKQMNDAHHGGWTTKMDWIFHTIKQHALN
T2 sequence (P27986 whole entry partner, canonical isoform): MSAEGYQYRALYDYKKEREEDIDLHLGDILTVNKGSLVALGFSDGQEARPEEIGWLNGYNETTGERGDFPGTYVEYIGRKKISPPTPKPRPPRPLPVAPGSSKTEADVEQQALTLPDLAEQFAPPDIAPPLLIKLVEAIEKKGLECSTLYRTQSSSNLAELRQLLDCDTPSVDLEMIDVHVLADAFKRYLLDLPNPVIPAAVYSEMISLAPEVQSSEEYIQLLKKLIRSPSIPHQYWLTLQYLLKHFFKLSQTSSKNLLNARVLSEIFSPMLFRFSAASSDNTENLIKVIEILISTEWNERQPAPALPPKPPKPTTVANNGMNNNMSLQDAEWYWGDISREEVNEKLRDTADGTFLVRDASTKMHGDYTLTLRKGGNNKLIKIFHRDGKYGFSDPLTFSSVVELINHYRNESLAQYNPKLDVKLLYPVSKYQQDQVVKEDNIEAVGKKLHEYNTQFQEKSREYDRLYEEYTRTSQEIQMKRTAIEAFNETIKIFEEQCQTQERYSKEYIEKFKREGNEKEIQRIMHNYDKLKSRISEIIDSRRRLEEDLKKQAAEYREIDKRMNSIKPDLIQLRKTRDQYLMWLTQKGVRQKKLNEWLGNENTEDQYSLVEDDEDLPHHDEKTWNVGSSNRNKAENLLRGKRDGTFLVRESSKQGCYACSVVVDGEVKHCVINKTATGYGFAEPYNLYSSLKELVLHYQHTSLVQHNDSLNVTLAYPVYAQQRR

T1 sequence (O00329 whole entry, canonical isoform): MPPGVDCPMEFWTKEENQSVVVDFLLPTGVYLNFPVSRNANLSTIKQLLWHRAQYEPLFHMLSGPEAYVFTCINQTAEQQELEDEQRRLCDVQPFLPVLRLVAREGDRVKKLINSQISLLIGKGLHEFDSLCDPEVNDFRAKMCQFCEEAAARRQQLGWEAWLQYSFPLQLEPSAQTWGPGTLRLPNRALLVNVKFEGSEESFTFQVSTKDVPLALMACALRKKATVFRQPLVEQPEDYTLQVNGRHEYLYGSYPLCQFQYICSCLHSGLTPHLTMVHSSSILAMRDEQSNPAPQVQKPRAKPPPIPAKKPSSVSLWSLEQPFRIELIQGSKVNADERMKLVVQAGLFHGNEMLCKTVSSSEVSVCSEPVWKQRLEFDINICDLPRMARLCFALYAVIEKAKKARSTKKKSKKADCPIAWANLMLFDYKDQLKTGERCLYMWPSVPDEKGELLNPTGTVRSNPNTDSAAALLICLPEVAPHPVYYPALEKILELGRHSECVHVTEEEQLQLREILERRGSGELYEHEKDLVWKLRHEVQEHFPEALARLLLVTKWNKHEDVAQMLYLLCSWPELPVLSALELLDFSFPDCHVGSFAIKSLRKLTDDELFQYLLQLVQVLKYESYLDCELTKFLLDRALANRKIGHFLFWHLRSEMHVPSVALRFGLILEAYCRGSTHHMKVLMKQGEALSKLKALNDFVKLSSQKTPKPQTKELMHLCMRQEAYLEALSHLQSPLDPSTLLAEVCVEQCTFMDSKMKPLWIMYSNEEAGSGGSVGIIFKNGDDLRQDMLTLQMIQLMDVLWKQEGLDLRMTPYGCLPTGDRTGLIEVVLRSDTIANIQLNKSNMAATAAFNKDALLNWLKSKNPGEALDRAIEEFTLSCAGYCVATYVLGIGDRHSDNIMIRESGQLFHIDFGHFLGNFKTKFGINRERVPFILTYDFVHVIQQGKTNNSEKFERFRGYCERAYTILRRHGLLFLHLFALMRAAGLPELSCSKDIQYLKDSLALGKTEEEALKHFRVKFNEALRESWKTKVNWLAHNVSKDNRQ
T1 sequence (P27986 whole entry partner, canonical isoform): as the sequence (P27986 whole entry partner, canonical isoform) above

pIC50 (PI3K-delta) | Selectivity versus PI3Kalpha (PI3K-alpha) | Structure (SMILES)
8.44 | >10 | CCC(=O)N1CC[C@H](N(C)c2ncnc3c2nc(-c2cnc(C(C)(C)C)s2)n3CC)C1 [Compound 2-11, (S)-1-(3-((8-(2-(tert-butyl)thiazol-5-yl)-9-ethyl-9H-purin-6-yl)(methyl)amino)pyrrolidin-1-yl)propan-1-one]
8.43 | >10 | CCn1c(-c2cnc(C)nc2)nc2c(NC3CN(C(=O)C4CC4)CC3(F)F)ncnc21 (racemic) [Compound 2-25, N-[(3S and 3R)-1-(cyclopropylcarbonyl)-4,4-difluoropyrrolidin-3-yl]-9-ethyl-8-(2-methylpyrimidin-5-yl)-9H-purin-6-amine]
> 9.00 | >10 | CCn1c(-c2ccc(OC)nc2)nc2c(N[C@H]3CCN(C(=O)C4CC(F)(F)C4)C3)ncnc21 [Compound 3A-8, N-{(3S)-1-[(3,3-difluorocyclobutyl)carbonyl]pyrrolidin-3-yl}-9-ethyl-8-(6-methoxypyridin-3-yl)-9H-purin-6-amine]
8.64 | >10 | CCC(=O)N1CC[C@H](Nc2ncnc3c2nc(-c2cnc(OC)c(C#N)c2)n3C)C1 [Compound 3-33, 2-methoxy-5-(9-methyl-6-{[(3S)-1-propanoylpyrrolidin-3-yl]amino}-9H-purin-8-yl)pyridine-3-carbonitrile]
8.68 | >10 | CCn1c(-c2cnc(C)nc2)nc2c(N[C@H]3CCN(C(=O)c4nc(C)oc4C)C3)ncnc21 [Compound 2-19, (S)-(2,5-dimethyloxazol-4-yl)(3-((9-ethyl-8-(2-methylpyrimidin-5-yl)-9H-purin-6-yl)amino)pyrrolidin-1-yl)methanone]
8.46 | >10 | CCC1CN(C(=O)C2CC2)CC1Nc1ncnc2c1nc(-c1cnc(C)nc1)n2CC (single isomer, unassigned) [Compound 3-20, N-[(3R,4S or 3S,4R)-1-(cyclopropylcarbonyl)-4-ethylpyrrolidin-3-yl]-9-ethyl-8-(2-methylpyrimidin-5-yl)-9H-purin-6-amine]
7.64 | >10 | CCn1c(Oc2ccccc2)nc2c(N[C@H]3CCN(C(=O)C4CC4)C3)ncnc21 [Compound 8-5, N-[(3S)-1-(cyclopropylcarbonyl)pyrrolidin-3-yl]-9-ethyl-8-phenoxy-9H-purin-6-amine]
8.02 | >10 | CCn1c(-c2cnc(C)nc2)nc2c(N[C@H]3CCCN(c4ccccn4)C3)ncnc21 [Compound 4-5, 9-ethyl-8-(2-methylpyrimidin-5-yl)-N-[(3S)-1-pyridin-2-ylpiperidin-3-yl]-9H-purin-6-amine]
8.33 | >10 | CCn1c(-c2cnc(C)nc2)nc2c(N[C@H]3CCN(C(=O)c4cn(C)nn4)C3)ncnc21 [Compound 2-75, 9-ethyl-8-(2-methylpyrimidin-5-yl)-N-{(3S)-1-[(1-methyl-1H-1,2,3-triazol-4-yl)carbonyl]pyrrolidin-3-yl}-9H-purin-6-amine]
7.62 | >10 | CCCN1CC(Nc2ncnc3c2nc(-c2cnc(C)nc2)n3CC)CC1=O (racemic) [Compound 14-4, 4(S and R)-{[9-ethyl-8-(2-methylpyrimidin-5-yl)-9H-purin-6-yl]amino}-1-propylpyrrolidin-2-one]
> 9.00 | >10 | CCn1c(-c2cnc(C)nc2)nc2c(NC3CN(C(=O)C4CC4)CC34CC4)ncnc21 (racemic) [Compound 3-17, (R and S)-N-[5-(cyclopropylcarbonyl)-5-azaspiro[2.4]hept-7-yl]-9-ethyl-8-(2-methylpyrimidin-5-yl)-9H-purin-6-amine]
8.47 | >10 | CCn1c(-c2ccc(C(F)(F)F)nc2)nc2c(N[C@H]3CCN(C(=O)C4CCCO4)C3)ncnc21 (single isomer, unassigned) [Compound 2-104, 9-ethyl-N-{(3S)-1-[(2R or 2S)-tetrahydrofuran-2-ylcarbonyl]pyrrolidin-3-yl}-8-[6-(trifluoromethyl)pyridin-3-yl]-9H-purin-6-amine]
7.80 | >10 | CCn1c(C(=O)NCC(F)(F)F)nc2c(N[C@H]3CCN(c4ccccn4)C3)ncnc21 [Compound 6-10, 9-ethyl-6-{[(3S)-1-pyridin-2-ylpyrrolidin-3-yl]amino}-N-(2,2,2-trifluoroethyl)-9H-purine-8-carboxamide]
8.80 | >10 | CCn1c(-c2cnc(C)nc2)nc2c(N[C@H]3CCN(C(=O)N4CCC4C)C3)ncnc21 (mixture of isomers) [Compound 12-3, 9-ethyl-N-{(3S)-1-[((S and R)-2-methylazetidin-1-yl)carbonyl]pyrrolidin-3-yl}-8-(2-methylpyrimidin-5-yl)-9H-purin-6-amine]
> 9.00 | >10 | CCn1c(-c2cnc(OC)c(C)c2)nc2c(N[C@H]3CCN(C(=O)OC(C)(C)C)C3)ncnc21 [Compound 1-5, (S)-tert-butyl 3-((9-ethyl-8-(6-methoxy-5-methylpyridin-3-yl)-9H-purin-6-yl)amino)pyrrolidine-1-carboxylate]
8.74 | >10 | CCn1c(-c2ccc(C(F)(F)F)nc2)nc2c(N[C@H]3CCN(C(=O)C4CCCO4)C3)ncnc21 (single isomer, unassigned) [Compound 2-103, 9-ethyl-N-{(3S)-1-[(2S or 2R)-tetrahydrofuran-2-ylcarbonyl]pyrrolidin-3-yl}-8-[6-(trifluoromethyl)pyridin-3-yl]-9H-purin-6-amine]
6.30 | >10 | CCC(=O)N1CC[C@H](Nc2ncnc3c2nc(C)n3CC)C1 [Compound 7-4, 9-ethyl-8-methyl-N-[(3S)-1-propanoylpyrrolidin-3-yl]-9H-purin-6-amine]
8.31 | >10 | CCn1c(-c2cnc(C)nc2)nc2c(N[C@H]3C[C@H](CO)N(C(=O)C4CC4)C3)ncnc21 [Compound 2-52, [(2R,4S)-1-(cyclopropylcarbonyl)-4-{[9-ethyl-8-(2-methylpyrimidin-5-yl)-9H-purin-6-yl]amino}pyrrolidin-2-yl]methanol]
8.13 | >10 | CCn1c(-c2cnc(C)nc2)nc2c(N[C@H]3CCN(C(=O)c4cc(C)on4)C3)ncnc21 [Compound 2-70, 9-ethyl-N-{(3S)-1-[(5-methylisoxazol-3-yl)carbonyl]pyrrolidin-3-yl}-8-(2-methylpyrimidin-5-yl)-9H-purin-6-amine]
8.85 | >10 | CCn1c(-c2cnc(C)nc2)nc2c(N[C@H]3CCN(c4cccc(OC)n4)C3)ncnc21 [Compound 4-7, 9-ethyl-N-[(3S)-1-(6-methoxypyridin-2-yl)pyrrolidin-3-yl]-8-(2-methylpyrimidin-5-yl)-9H-purin-6-amine]
6.64 | >10 | CCn1c(C(=O)N(C)CC(F)(F)F)nc2c(N[C@H]3CCN(C(=O)C4CC4)C3)ncnc21 [Compound 6-15, 6-{[(3S)-1-(cyclopropylcarbonyl)pyrrolidin-3-yl]amino}-9-ethyl-N-methyl-N-(2,2,2-trifluoroethyl)-9H-purine-8-carboxamide]
